Data on 1 compound can be found in ChEMBL document CHEMBL1122948, “3,4-Diphenyl-1H-pyrazole-1-propanamine antidepressants” (J Med Chem, 1985).

Each structure is given as a SMILES string.

Holding throughout (assay type): functional
Test [1] deals with Mus musculus. Kind of test: Effect on tetrabenazine-induced suppression of locomotor activity in the mouse after peroral administration.
The subject of test [2] is Mus musculus. Kind of test: Prevention of reserpine-induced ptosis in the mouse after peroral administration.
Test [3] is filed under the species Rattus norvegicus. Briefly: In vitro inhibitory activity against [3H]5-HT uptake into crude synaptosomes from whole rat brain.
For test [4], the species on record is Rattus norvegicus. Kind of test: In vitro inhibitory activity against [3H]-5-HT uptake into crude synaptosomes from whole rat brain.

Turning to `CN(C)CCCN1c2ccccc2CCc2ccccc21` [IMIPRAMINE], the MED in test [1] and in test [2] was 4 (mg of base) kg-1 in each case. The 50% inhibitory concentration (IC50) (commonly the midpoint of a concentration-inhibition curve) was 240 nM in test [3] and 3.1 µM in test [4].
